Data taken from publication PMC9856672, “SGC-CAMKK2-1: A Chemical Probe for CAMKK2” (Cells, 2023).

Columns and labels:
[1] = biological target: T1, STK16 (Homo sapiens, UniProt O75716); assay: KINOMEscan at 1 μM, STK16; type: binding; conditions: 1000 nM, read-out: Percent Control
T1 construct: purchased Eurofins DiscoverX KINOMEscan
Description: (§1) Supplement cells-12-00287-s001.zip/File S2. KinomeScan data for the CAMKK2 probe and negative control.xlsx, sheet "SGC-CAMKK2-1N" | column: Percent Control

[2] = biological target: T2, GRK3 (Homo sapiens, UniProt P35626); assay: KINOMEscan at 1 μM, GRK3; type: binding; conditions: 1000 nM, read-out: Percent Control
T2 construct: purchased Eurofins DiscoverX KINOMEscan
Description: as §1

[3] = biological target: T3, YSK1 (Homo sapiens, UniProt O00506); assay: KINOMEscan at 1 μM, YSK1; type: binding; conditions: 1000 nM, read-out: Percent Control
T3 construct: purchased Eurofins DiscoverX KINOMEscan
Description: as §1

[4] = biological target: T4, DYRK1A (Homo sapiens, UniProt Q13627); assay: KINOMEscan at 1 μM, DYRK1A; type: binding; conditions: 1000 nM, read-out: Percent Control
T4 construct: purchased Eurofins DiscoverX KINOMEscan
Description: as §1

[5] = biological target: T5, TAOK2 (Homo sapiens, UniProt Q9UL54); assay: KINOMEscan at 1 μM, TAOK2; type: binding; conditions: 1000 nM, read-out: Percent Control
T5 construct: purchased Eurofins DiscoverX KINOMEscan
Description: as §1

[6] = biological target: T6, BRAF(V600E) (Homo sapiens, UniProt P15056, V600E); assay: KINOMEscan at 1 μM, BRAF(V600E); type: binding; conditions: 1000 nM, read-out: Percent Control
T6 construct: purchased Eurofins DiscoverX KINOMEscan
Description: as §1

[7] = biological target: T7, AURKC (Homo sapiens, UniProt Q9UQB9); assay: KINOMEscan at 1 μM, AURKC; type: binding; conditions: 1000 nM, read-out: Percent Control
T7 construct: purchased Eurofins DiscoverX KINOMEscan
Description: as §1

[8] = biological target: T8, RIPK1 (Homo sapiens, UniProt Q13546); assay: KINOMEscan at 1 μM, RIPK1; type: binding; conditions: 1000 nM, read-out: Percent Control
T8 construct: purchased Eurofins DiscoverX KINOMEscan
Description: as §1

[9] = biological target: T9, TLK1 (Homo sapiens, UniProt Q9UKI8); assay: KINOMEscan at 1 μM, TLK1; type: binding; conditions: 1000 nM, read-out: Percent Control
T9 construct: purchased Eurofins DiscoverX KINOMEscan
Description: as §1

[10] = biological target: T10, CDK3 (Homo sapiens, UniProt Q00526); assay: KINOMEscan at 1 μM, CDK3; type: binding; conditions: 1000 nM, read-out: Percent Control
T10 construct: purchased Eurofins DiscoverX KINOMEscan
Description: as §1

[11] = biological target: T11, MLCK (Homo sapiens, UniProt Q32MK0); assay: KINOMEscan binding assay at 1 μM, MLCK; conditions: Compound Concentration 1000 nM; read-out: Percent Control
T11 construct: purchased Eurofins DiscoverX KINOMEscan
Description: as §1

[12] = biological target: T12, PIK3CA(M1043I) (Homo sapiens, UniProt P42336, M1043I); assay: KINOMEscan binding assay at 1 μM, PIK3CA(M1043I); conditions: Compound Concentration 1000 nM; read-out: Percent Control
T12 construct: purchased Eurofins DiscoverX KINOMEscan
Description: as §1

[13] = biological target: T13, RET(V804M) (Homo sapiens, UniProt P07949, V804M); assay: KINOMEscan binding assay at 1 μM, RET(V804M); conditions: Compound Concentration 1000 nM; read-out: Percent Control
T13 construct: purchased Eurofins DiscoverX KINOMEscan
Description: as §1

[14] = biological target: T14, CASK (Homo sapiens, UniProt O14936); assay: KINOMEscan 1 μM, CASK; type: binding; conditions: 1000 nM; Entrez CASK; read-out: Percent Control
T14 construct: purchased Eurofins DiscoverX KINOMEscan
Description: (§2) Supplement cells-12-00287-s001.zip/File S2. KinomeScan data for the CAMKK2 probe and negative control.xlsx, sheet "SGC-CAMKK2-1" | column: Percent Control

[15] = biological target: T15, TRKC (Homo sapiens, UniProt Q16288); assay: KINOMEscan 1 μM, TRKC; type: binding; conditions: 1000 nM; Entrez NTRK3; read-out: Percent Control
T15 construct: purchased Eurofins DiscoverX KINOMEscan
Description: as §2

[16] = biological target: T16, MRCKB (Homo sapiens, UniProt Q9Y5S2); assay: KINOMEscan 1 μM, MRCKB; type: binding; conditions: 1000 nM; Entrez CDC42BPB; read-out: Percent Control
T16 construct: purchased Eurofins DiscoverX KINOMEscan
Description: as §2

[17] = biological target: T17, FLT1 (Homo sapiens, UniProt P17948); assay: KINOMEscan 1 μM, FLT1; type: binding; conditions: 1000 nM; Entrez FLT1; read-out: Percent Control
T17 construct: purchased Eurofins DiscoverX KINOMEscan
Description: as §2

[18] = biological target: T18, CDK11 (Homo sapiens, UniProt Q9BWU1); assay: KINOMEscan 1 μM, CDK11; type: binding; conditions: 1000 nM; Entrez CDK19; read-out: Percent Control
T18 construct: purchased Eurofins DiscoverX KINOMEscan
Description: as §2

[19] = biological target: T19, DDR1 (Homo sapiens, UniProt Q08345); assay: KINOMEscan 1 μM, DDR1; type: binding; conditions: 1000 nM; Entrez DDR1; read-out: Percent Control
T19 construct: purchased Eurofins DiscoverX KINOMEscan
Description: as §2

[20] = biological target: T20, TSSK3 (Homo sapiens, UniProt Q96PN8); assay: KINOMEscan 1 μM, TSSK3; type: binding; conditions: 1000 nM; Entrez TSSK3; read-out: Percent Control
T20 construct: purchased Eurofins DiscoverX KINOMEscan
Description: as §2

[21] = biological target: T21, ABL1(H396P)-nonphosphorylated (Homo sapiens, UniProt P00519, H396P); assay: KINOMEscan 1 μM, ABL1(H396P)-nonphosphorylated; type: binding; conditions: 1000 nM; Entrez ABL1; read-out: Percent Control
T21 construct: purchased Eurofins DiscoverX KINOMEscan
Description: as §2

[22] = biological target: T22, CSF1R (Homo sapiens, UniProt P07333); assay: KINOMEscan 1 μM, CSF1R; type: binding; conditions: 1000 nM; Entrez CSF1R; read-out: Percent Control
T22 construct: purchased Eurofins DiscoverX KINOMEscan
Description: as §2

[23] = biological target: T23, CSNK1G1 (Homo sapiens, UniProt Q9HCP0); assay: KINOMEscan 1 μM, CSNK1G1; type: binding; conditions: 1000 nM; Entrez CSNK1G1; read-out: Percent Control
T23 construct: purchased Eurofins DiscoverX KINOMEscan
Description: as §2

[24] = biological target: T24, CTK (Homo sapiens, UniProt P42679); assay: KINOMEscan 1 μM, CTK; type: binding; conditions: 1000 nM; Entrez MATK; read-out: Percent Control
T24 construct: purchased Eurofins DiscoverX KINOMEscan
Description: as §2

[25] = biological target: T25, EPHB1 (Homo sapiens, UniProt P54762); assay: KINOMEscan 1 μM, EPHB1; type: binding; conditions: 1000 nM; Entrez EPHB1; read-out: Percent Control
T25 construct: purchased Eurofins DiscoverX KINOMEscan
Description: as §2

[26] = biological target: T26, MARK3 (Homo sapiens, UniProt P27448); assay: KINOMEscan 1 μM, MARK3; type: binding; conditions: 1000 nM; Entrez MARK3; read-out: Percent Control
T26 construct: purchased Eurofins DiscoverX KINOMEscan
Description: as §2

[27] = biological target: T27, p38-beta (Homo sapiens, UniProt Q15759); assay: KINOMEscan 1 μM, p38-beta; type: binding; conditions: 1000 nM; Entrez MAPK11; read-out: Percent Control
T27 construct: purchased Eurofins DiscoverX KINOMEscan
Description: as §2

[28] = biological target: T28, PDGFRB (Homo sapiens, UniProt P09619); assay: DiscoverX KINOMEscan binding assay at 1 μM, PDGFRB; conditions: Compound Concentration 1000 nM, read-out: Percent Control
T28 construct: purchased Eurofins DiscoverX KINOMEscan
Description: as §2

[29] = biological target: T29, QSK (Homo sapiens, UniProt Q9Y2K2); assay: DiscoverX KINOMEscan binding assay at 1 μM, QSK; conditions: QSK (KIAA0999); Compound Concentration 1000 nM; read-out: Percent Control
T29 construct: purchased Eurofins DiscoverX KINOMEscan
Description: as §2

[30] = biological target: T30, RSK4(Kin.Dom.1-N-terminal) (Homo sapiens, UniProt Q9UK32); assay: DiscoverX KINOMEscan binding assay at 1 μM, RSK4(Kin.Dom.1-N-terminal); conditions: RSK4(Kin.Dom.1-N-terminal) (RPS6KA6); Compound Concentration 1000 nM; read-out: Percent Control
T30 construct: RSK4(Kin.Dom.1-N-terminal); purchased Eurofins DiscoverX KINOMEscan
Description: as §2

[31] = biological target: T31, RSK4(Kin.Dom.2-C-terminal) (Homo sapiens, UniProt Q9UK32); assay: DiscoverX KINOMEscan binding assay at 1 μM, RSK4(Kin.Dom.2-C-terminal); conditions: RSK4(Kin.Dom.2-C-terminal) (RPS6KA6); Compound Concentration 1000 nM; read-out: Percent Control
T31 construct: RSK4(Kin.Dom.2-C-terminal); purchased Eurofins DiscoverX KINOMEscan
Description: as §2

T12 sequence (P42336 whole entry M1043I): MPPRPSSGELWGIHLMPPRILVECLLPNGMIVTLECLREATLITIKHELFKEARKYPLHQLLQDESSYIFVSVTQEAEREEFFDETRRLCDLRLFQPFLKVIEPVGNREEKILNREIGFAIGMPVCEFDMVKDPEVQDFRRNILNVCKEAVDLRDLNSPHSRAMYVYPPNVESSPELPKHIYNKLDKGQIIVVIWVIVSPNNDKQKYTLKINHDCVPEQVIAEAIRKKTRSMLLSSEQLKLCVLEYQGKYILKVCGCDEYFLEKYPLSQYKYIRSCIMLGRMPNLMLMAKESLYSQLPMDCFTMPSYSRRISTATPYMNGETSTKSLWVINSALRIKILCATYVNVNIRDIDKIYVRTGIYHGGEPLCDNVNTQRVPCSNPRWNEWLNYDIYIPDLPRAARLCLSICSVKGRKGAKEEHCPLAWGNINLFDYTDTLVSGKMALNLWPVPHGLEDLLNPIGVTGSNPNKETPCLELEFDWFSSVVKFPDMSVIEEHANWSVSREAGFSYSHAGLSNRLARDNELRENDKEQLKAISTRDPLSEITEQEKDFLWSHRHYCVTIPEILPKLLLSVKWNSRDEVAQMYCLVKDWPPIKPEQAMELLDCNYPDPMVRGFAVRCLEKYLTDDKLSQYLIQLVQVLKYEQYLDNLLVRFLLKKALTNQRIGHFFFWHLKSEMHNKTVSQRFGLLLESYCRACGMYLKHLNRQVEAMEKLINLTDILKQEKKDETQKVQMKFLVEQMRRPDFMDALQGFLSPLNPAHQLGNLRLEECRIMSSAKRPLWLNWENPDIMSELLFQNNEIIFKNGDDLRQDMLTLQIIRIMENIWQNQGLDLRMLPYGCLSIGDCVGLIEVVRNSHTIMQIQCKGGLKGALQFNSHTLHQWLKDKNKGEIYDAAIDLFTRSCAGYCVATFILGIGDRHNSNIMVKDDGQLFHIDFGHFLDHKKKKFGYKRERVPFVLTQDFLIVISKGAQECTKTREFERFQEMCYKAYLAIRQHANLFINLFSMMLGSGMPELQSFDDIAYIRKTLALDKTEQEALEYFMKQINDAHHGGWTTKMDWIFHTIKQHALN
T25 sequence (P54762 18-984): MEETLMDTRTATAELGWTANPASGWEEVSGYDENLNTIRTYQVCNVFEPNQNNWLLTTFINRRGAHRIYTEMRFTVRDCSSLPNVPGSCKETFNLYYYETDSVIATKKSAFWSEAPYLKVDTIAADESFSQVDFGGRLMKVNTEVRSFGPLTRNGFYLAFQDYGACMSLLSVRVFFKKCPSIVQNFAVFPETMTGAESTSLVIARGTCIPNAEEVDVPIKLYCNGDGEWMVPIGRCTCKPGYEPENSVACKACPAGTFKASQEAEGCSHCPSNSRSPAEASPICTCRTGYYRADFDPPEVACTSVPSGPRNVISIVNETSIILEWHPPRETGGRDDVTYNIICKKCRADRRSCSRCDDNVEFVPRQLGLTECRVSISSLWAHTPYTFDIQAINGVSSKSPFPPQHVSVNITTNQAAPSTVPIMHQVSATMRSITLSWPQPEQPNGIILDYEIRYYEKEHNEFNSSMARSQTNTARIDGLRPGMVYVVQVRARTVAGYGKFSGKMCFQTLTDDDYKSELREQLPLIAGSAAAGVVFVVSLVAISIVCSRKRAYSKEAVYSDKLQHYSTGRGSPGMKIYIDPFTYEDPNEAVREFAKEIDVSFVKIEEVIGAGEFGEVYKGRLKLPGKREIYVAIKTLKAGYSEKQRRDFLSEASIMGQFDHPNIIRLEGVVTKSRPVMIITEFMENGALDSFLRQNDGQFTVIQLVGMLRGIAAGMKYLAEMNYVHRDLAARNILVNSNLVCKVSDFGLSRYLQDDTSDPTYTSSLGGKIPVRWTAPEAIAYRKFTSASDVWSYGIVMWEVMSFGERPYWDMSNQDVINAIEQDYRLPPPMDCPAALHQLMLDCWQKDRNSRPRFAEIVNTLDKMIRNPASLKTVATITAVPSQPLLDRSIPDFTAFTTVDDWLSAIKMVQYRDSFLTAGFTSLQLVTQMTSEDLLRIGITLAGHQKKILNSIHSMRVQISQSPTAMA
T11 sequence (Q32MK0 whole entry): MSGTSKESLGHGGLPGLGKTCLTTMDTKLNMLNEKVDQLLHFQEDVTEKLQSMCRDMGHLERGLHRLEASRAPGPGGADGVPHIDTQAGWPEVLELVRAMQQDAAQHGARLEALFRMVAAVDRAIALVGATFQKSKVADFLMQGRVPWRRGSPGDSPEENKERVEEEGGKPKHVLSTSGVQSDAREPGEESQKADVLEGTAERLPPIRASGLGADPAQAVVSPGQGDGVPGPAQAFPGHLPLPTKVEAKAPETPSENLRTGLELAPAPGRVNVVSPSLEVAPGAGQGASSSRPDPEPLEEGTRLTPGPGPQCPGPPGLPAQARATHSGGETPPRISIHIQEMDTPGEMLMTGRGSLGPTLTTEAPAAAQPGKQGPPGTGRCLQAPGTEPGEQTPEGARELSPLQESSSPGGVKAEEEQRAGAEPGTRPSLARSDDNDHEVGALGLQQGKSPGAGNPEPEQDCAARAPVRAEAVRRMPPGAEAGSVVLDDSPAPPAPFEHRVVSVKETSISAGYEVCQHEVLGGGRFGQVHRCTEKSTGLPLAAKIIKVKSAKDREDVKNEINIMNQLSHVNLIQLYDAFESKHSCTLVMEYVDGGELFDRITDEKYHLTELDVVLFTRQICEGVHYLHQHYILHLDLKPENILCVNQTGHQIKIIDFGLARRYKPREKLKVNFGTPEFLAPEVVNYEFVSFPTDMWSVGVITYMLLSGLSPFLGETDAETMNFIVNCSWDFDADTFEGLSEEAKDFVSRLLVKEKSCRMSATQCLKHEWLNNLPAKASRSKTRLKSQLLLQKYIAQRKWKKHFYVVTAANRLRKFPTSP
T16 sequence (Q9Y5S2 whole entry): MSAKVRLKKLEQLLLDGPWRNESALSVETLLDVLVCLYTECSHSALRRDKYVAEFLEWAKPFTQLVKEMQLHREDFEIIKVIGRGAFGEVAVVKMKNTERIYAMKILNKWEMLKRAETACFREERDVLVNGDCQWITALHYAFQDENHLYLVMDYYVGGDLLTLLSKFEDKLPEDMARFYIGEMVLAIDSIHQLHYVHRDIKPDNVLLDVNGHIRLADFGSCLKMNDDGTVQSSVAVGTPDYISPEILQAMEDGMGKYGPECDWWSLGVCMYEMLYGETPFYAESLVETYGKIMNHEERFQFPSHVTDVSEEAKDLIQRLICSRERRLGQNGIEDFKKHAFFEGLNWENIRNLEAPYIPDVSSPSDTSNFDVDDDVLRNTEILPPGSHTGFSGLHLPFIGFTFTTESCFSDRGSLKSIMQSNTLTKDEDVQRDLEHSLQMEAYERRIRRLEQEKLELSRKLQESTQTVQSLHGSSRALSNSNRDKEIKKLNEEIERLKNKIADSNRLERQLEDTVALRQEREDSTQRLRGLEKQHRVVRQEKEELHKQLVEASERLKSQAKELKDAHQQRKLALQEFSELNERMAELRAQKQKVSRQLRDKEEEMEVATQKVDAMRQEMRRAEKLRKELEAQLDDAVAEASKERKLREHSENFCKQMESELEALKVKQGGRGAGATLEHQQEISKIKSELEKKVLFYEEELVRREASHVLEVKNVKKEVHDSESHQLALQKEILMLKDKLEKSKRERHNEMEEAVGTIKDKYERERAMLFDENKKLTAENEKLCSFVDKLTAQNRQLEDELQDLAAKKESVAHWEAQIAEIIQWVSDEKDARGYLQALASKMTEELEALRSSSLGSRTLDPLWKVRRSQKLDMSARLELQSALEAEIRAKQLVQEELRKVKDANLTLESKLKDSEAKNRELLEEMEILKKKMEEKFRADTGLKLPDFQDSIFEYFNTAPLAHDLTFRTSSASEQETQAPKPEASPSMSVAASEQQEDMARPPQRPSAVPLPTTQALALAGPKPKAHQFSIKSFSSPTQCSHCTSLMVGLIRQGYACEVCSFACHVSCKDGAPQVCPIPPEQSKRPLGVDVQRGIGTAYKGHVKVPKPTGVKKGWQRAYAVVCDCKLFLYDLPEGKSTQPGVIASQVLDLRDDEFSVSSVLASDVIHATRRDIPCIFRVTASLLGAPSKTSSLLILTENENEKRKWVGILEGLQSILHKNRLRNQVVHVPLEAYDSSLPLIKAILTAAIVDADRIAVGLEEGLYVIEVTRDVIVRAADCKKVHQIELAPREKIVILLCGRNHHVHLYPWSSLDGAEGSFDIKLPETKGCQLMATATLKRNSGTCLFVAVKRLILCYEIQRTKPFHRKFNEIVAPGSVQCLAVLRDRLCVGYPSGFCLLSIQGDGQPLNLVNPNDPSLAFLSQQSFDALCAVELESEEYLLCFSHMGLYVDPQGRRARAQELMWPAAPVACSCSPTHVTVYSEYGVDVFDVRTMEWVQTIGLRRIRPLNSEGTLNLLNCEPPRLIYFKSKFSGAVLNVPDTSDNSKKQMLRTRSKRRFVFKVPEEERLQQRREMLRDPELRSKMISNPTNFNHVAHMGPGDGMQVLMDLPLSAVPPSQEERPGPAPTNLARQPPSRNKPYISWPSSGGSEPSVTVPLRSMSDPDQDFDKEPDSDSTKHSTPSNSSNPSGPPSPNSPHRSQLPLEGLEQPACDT
T3 sequence (O00506 whole entry): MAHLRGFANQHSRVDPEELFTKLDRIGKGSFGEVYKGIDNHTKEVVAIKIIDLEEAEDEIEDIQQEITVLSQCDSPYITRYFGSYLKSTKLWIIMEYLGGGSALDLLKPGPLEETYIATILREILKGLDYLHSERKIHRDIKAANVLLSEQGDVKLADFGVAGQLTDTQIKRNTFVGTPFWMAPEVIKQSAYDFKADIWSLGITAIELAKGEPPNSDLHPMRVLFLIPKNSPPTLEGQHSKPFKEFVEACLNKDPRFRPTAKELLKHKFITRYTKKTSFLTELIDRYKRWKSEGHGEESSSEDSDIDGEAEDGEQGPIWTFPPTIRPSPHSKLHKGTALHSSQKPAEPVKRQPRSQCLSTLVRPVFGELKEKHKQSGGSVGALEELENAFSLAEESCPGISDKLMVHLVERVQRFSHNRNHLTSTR

Structure (SMILES): O=C(O)c1ccc(-c2coc3ncc(-c4ccccc4)cc23)cc1Cl [SGC-CAMKK2-1N (UNC-YL-83)]
- remaining binding at 1 µM [1]: 42%
- remaining binding at 1 µM [2]: 66%
- remaining binding at 1 µM [3]: 66%
- remaining binding at 1 µM [4]: 71%
- remaining binding at 1 µM [5]: 78%
- remaining binding at 1 µM [6]: 87%
- remaining binding at 1 µM [7]: 90%
- remaining binding at 1 µM [8]: 90%
- remaining binding at 1 µM [9]: 92%
- remaining binding at 1 µM [10]: 100%
- remaining binding at 1 µM [11]: 100%
- remaining binding at 1 µM [12]: 100%
- remaining binding at 1 µM [13]: 100%

Structure (SMILES): Cc1cccc(-c2cnc3occ(-c4ccc(C(=O)O)c(C5CCCC5)c4)c3c2)c1 [SGC-CAMKK2-1 (YL-36)]
- remaining binding at 1 µM [14]: 79%
- remaining binding at 1 µM [15]: 81%
- remaining binding at 1 µM [16]: 82%
- remaining binding at 1 µM [17]: 93%
- remaining binding at 1 µM [18]: 98%
- remaining binding at 1 µM [19]: 98%
- remaining binding at 1 µM [20]: 98%
- remaining binding at 1 µM [21]: 100%
- remaining binding at 1 µM [22]: 100%
- remaining binding at 1 µM [23]: 100%
- remaining binding at 1 µM [24]: 100%
- remaining binding at 1 µM [25]: 100%
- remaining binding at 1 µM [26]: 100%
- remaining binding at 1 µM [27]: 100%
- remaining binding at 1 µM [28]: 100%
- remaining binding at 1 µM [29]: 100%
- remaining binding at 1 µM [30]: 100%
- remaining binding at 1 µM [31]: 100%
